Assays:
Assay type in all cases: cell-based, human
Jurkat cells [1] = experiment: Co-treatment with Q-VD-OPh and Fer-1, cell viability; settings: 10 μM Fer-1/Q-VD-OPh, treatment with 2 μM, 72 h
Method: FIG. 23 is a bar graph showing observed changes in the % cell viability of Jurkat cells treated with 10 μM Ferrastatin-1/Q-VD-OPh (Fer-1/Q-V-O) in combination and then treated for 72 h with 2 μM DefNetTrp (DNT), or media alone. * p-value <0.01 vs the corresponding non-treated Fer-1/Q-V-O group.

red blood cells = experiment: CO-ADD hemolysis assay; settings: up to a concentration of 50.3 μM; human red blood cells, 1 h at 37° C.
Method: CO-ADD hemolysis assay. Dry compounds ranging from 1-2 mg were delivered to the CO-ADD. The compounds were solubilized to a stock concentration of 10 mg/mL in DMSO. Samples were serially diluted 1:2 fold in water to final testing concentrations of […] while keeping the final DMSO concentration to a maximum of 0.32% (v/v). Each sample concentration was prepared in polypropylene 384-well plates (Corning 3657) for hemolysis assays, all in two duplicate plates (n=2). All sample preparation was conducted using liquid handling robots. Human whole blood (Australian Red Cross) was washed three times with three volumes of 0.9% NaCl (w/v) and resuspended in a concentration of […], determined by manual cell count in a Neubauer hemocytometer. Washed cells were added to the compound-containing plates for a final volume of 50 μL. After a 10 min shake on a plate shaker the plates were then incubated for 1 h at 37° C. After incubation, the plates were centrifuged at 1000 g for 10 min to pellet cells and debris, 25 μL of the supernatant was then transferred to reading plates (384 well, polystyrene plated (PS), Corning CLS3680), with hemolysis determined by measuring the supernatant absorbance at […] (OD405) using a Tecan M1000 Pro monochromator plate reader. HC10 and HC50 (concentration at 10% and 50% hemolysis, respectively) were calculated by curve fitting the inhibition values vs. log(concentration) using a sigmoidal dose-response function with variable fitting values for the top, bottom, and slope. The maximal percentage of hemolysis is reported as Dmax. Hemolysis samples are classified by HC10≤32 μg/mL. […] Melittin was used in 8 concentrations in 2-fold serial dilutions with 50 µg/mL being the highest concentration.

Jurkat cells [2] = experiment: Apoptosis mechanistic cell viability study (Q-VD-OPh); settings: 10 μM Q-VD-OPh pretreatment, 2 μM DefNEtTrp, 72 h
Method: Apoptosis mechanistic cell viability study. Jurkat cells were seeded into 96-well plates, as indicated in the MTT assay described above. The cells were treated with 10 μM of the apoptosis inhibitor Q-VD-OPh (Q-V-O). Another group of cells were treated with media alone. After 1 h incubation, half of the cells supplemented with Q-V-O were treated with 2 μM DefNEtTrp or 2 μM cisplatin, as positive control, while the other half was treated with media alone. The final percentage of DMF was maintained at 0.5% (v/v). The MTT assay was performed with these samples (n=6). A student t-test was performed to evaluate the difference in the viability of cells treated with DefNEtTrp or cisplatin and supplemented with and without Q-V-O.

[3] = test system: Ovarian cancer cell lines; experiment: NCI 60 five-dose screen, ovarian panel; settings: 48 h
Method: (§1) National Cancer Institute Cancer Cell Line (NCI 60) Screen of DefNEtTrp. Details of the methodology for NCI 60 cell line screening are described at http://dtp.nci.nih.gov/branches/btb/ivclsp.html. The cells, grown in supplemented RPMI-1640 medium, are seeded in 96 well plates at an appropriate density and incubated for 24 h. The test compounds are dissolved in DMSO and incubated with cells at a single dose of 10.0 μM for 48 h. The assay is terminated by addition of cold trichloroacetic acid, and the cells are fixed and stained with sulforhodamine B. Bound stain is solubilized, and the absorbance is read on an automated plate reader. […] Using the seven absorbance measurements [time zero, […], control growth, (C), and test growth in the presence of drug at the five concentration levels (Tf)], the percentage growth was calculated at each of the drug concentrations levels as: [(Tf−Ti)/(C−Ti)]×100 for concentrations for which Tf≥Ti and [(Tf−Ti)/Ti]×100 for concentrations for which Tf<Ti. Three-dose response parameters (GI50, TGI, and LC50) were calculated for each of the experimental agents in five dose assay. […] The total growth inhibition (TGI) was calculated from Tf=Ti, which was the drug concentration resulting in total growth inhibition and signified the cytostatic effect. […]

Renal cancer cell lines = experiment: NCI 60 five-dose screen, renal panel; settings: 48 h
Method: as §1

[4] = test system: Non-Small Cell Lung cancer cell lines; experiment: NCI 60 five-dose screen, non-small cell lung panel; settings: 48 h
Method: as §1

Colon cancer cell lines = experiment: NCI 60 five-dose screen, colon panel; settings: 48 h
Method: as §1

Melanoma cell lines = experiment: NCI 60 five-dose screen, melanoma panel; settings: 48 h
Method: as §1

[5] = cell lines in which TGI was observed
[6] = Homo sapiens, read-out: GI50 (calculated average)

## Nc1cccnc1/C=N/NC(=S)NCCNC(=O)c1ccc(-n2nc(-c3ccccc3O)nc2-c2ccccc2O)cc1 [DefNEtTrp, deferasirox nitrogen ethyl triapine]
Jurkat cells [1]
  change in viability with equimolar Q-VD-OPh and Fer-1 co-treatment: three-fold increase in the viability
Red blood cells
  hemolysis: ~5%
Jurkat cells [2]
  change in viability of cells pretreated with Q-VD-OPh: two-fold increase in viability
[3]; [5]
  TGI (calculated average): 9820 nM
[3]; [6]
  GI50: 1120 nM
Renal cancer cell lines; [5]
  TGI (calculated average): 13710 nM
Renal cancer cell lines; [6]
  GI50: 4970 nM
[4]; [5]
  TGI (calculated average): 6330 nM
[4]; [6]
  GI50: 730 nM
Colon cancer cell lines; [5]
  TGI (calculated average): 12220 nM
Colon cancer cell lines; [6]
  GI50: 870 nM
Melanoma cell lines; [5]
  TGI (calculated average): 4730 nM
Melanoma cell lines; [6]
  GI50: 610 nM
